Assay results reported in patent publication US20230123856A1, “5-FLUORONICOTINAMIDE DERIVATIVES AND USES THEREOF” (Tenaya Therapeutics, Inc., priority 2019, published 2023).

Target: T1, HDAC6 (Homo sapiens, UniProt Q9UBN7)
T1 sequence (Q9UBN7 1-1215): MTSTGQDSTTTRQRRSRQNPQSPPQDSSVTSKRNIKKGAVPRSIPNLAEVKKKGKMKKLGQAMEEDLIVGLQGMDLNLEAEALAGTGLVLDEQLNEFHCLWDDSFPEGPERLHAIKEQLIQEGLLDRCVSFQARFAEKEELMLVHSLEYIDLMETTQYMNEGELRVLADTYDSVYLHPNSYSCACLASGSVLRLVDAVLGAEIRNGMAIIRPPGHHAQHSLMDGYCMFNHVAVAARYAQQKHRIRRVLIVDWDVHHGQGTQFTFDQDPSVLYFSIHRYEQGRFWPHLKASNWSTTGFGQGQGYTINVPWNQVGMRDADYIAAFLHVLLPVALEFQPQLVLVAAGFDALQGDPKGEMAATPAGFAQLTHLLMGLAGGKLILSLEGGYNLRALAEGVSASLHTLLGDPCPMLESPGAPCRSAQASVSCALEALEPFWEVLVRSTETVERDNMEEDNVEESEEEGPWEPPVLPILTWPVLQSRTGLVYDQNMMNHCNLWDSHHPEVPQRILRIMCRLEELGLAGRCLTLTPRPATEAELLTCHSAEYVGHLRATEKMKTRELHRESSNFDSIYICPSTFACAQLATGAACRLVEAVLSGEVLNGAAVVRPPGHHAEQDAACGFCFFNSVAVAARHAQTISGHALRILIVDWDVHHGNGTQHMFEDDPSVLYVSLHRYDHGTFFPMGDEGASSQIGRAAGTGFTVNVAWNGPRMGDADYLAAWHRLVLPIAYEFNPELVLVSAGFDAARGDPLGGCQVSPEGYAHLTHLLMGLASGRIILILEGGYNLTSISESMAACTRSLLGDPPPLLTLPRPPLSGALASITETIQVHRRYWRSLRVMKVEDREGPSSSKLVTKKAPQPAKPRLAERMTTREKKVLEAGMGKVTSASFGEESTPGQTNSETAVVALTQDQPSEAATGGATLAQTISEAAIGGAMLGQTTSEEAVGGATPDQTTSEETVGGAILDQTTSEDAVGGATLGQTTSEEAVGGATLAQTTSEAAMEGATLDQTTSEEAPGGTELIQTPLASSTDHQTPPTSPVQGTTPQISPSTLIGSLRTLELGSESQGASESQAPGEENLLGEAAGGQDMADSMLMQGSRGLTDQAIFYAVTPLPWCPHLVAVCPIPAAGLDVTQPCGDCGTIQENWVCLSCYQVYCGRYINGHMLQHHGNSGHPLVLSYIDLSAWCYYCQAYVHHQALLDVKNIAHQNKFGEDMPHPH
Assay: Biochemical luminescent HDAC-Glo I/II assay, HDAC6
Conditions: recombinant HDAC6 protein, HDAC-Glo I/II luminescent substrate

| IC50 | Structure (SMILES) |
| --- | --- |
| 2.18 nM | O=C(NO)c1cnc(NC2(c3ccccn3)CCC2)c(F)c1 [Compound I-37] |
| 5.67 nM | CO[C@H]1COC[C@@H]1Nc1ncc(C(=O)NO)cc1F [Compound I-38] |
| 1.12 nM | COCC1(Nc2ncc(C(=O)NO)cc2F)CC(F)(F)C1 [Compound I-39] |
| 3.36 nM | CCC1(Nc2ncc(C(=O)NO)cc2F)COC1 [Compound I-40] |
| 3.97 nM | O=C(NO)c1cnc(NC2(C3CC3)CC2)c(F)c1 [Compound I-41] |
| 34.3 nM | CN1CC[C@H](Nc2ncc(C(=O)NO)cc2F)C1=O [Compound I-42A] |
| 41.7 nM | CN1CC[C@@H](Nc2ncc(C(=O)NO)cc2F)C1=O [Compound I-42B] |
| 51.1 nM | O=C(NO)c1cnc(N[C@H]2CCNC2=O)c(F)c1 [Compound I-43A] |
| 25.7 nM | O=C(NO)c1cnc(N[C@@H]2CCNC2=O)c(F)c1 [Compound I-43B] |
| 4.71 nM | COCCC1(Nc2ncc(C(=O)NO)cc2F)CC1 [Compound I-44] |
| 6.51 nM | O=C(NO)c1cnc(NC2(c3ncccc3F)CC2)c(F)c1 [Compound I-45, 5-fluoro-6-{[1-(3-fluoropyridin-2-yl)cyclopropyl]amino}-N-hydroxypyridine-3-carboxamide] |
| 29.2 nM | O=C(NO)c1cnc(NC2(c3ncccn3)CC2)c(F)c1 [Compound I-46, 5-fluoro-N-hydroxy-6-((1-(pyrimidin-2-yl)cyclopropyl)amino)nicotinamide] |
| 4.36 nM | CN1Cc2ccccc2N(Cc2ncc(C(=O)NO)cc2F)C1=O [Compound I-47] |
| 2.27 nM | O=C(NO)c1cnc(Cn2c3c(c4ccccc42)S(=O)(=O)CC3)c(F)c1 [Compound I-48] |
| 5.11 nM | O=C(NO)c1cnc(Cn2c(C(F)(F)F)nc3ccccc32)c(F)c1 [Compound I-49] |
| 2.98 nM | Cc1cc2cccnc2n1Cc1ncc(C(=O)NO)cc1F [Compound I-50] |
| 1.94 nM | Cc1c(C)n(Cc2ncc(C(=O)NO)cc2F)c2ncccc12 [Compound I-51] |
| 4.29 nM | COC(=O)N(Cc1ncc(C(=O)NO)cc1F)c1ncccc1O [Compound I-52] |
| 8.69 nM | Cc1nc2cccnc2n1Cc1ncc(C(=O)NO)cc1F [Compound I-53] |
| 80.3 nM | O=C(NO)c1cnc(Cn2c(N3CCOCC3)nc3ccccc32)c(F)c1 [Compound I-54] |
| 3.88 nM | O=C(NO)c1cnc(Cn2ccc3cc(C(=O)NC4CC4)cnc32)c(F)c1 [Compound I-55, N-cyclopropyl-1-((3-fluoro-5-(hydroxycarbamoyl)pyridin-2-yl)methyl)-1H-pyrrolo[2,3-b]pyridine-5-carboxamide] |
| 7.67 nM | O=C(NO)c1cnc(NC2(c3ccccn3)COC2)c(F)c1 [Compound I-56] |
| 14.6 nM | O=C(NO)c1cnc(OC2(c3ccccn3)COC2)c(F)c1 [III-2, 5-fluoro-N-hydroxy-6-{[3-(pyridin-2-yl)oxetan-3-yl]oxy}pyridine-3-carboxamide] |
